Patent publication US12246002B2, “Pharmaceutical composition for prevention or treatment of circadian rhythm-related disorders, comprising oxyiminomethylbenzene derivative as active ingredient” (KOREA UNIVERSITY RESEARCH AND BUSINESS FOUNDATION, priority 2018, dated 2025)

Tests used:
CLOCK:BMAL1 dimer = test: E-box-LUC reporter assay of transcriptional activity of CLOCK:BMAL1 dimer in NIH-3T3 fibroblast line; type: cell-based; details: NIH-3T3 E-box-LUC cells; for Max (%) maximum activity of E-box-LUC reporter compared to the control group: four parameter logistic fit, DMSO control
Procedure: The NIH-3T3 fibroblast line (Non-patent document 6) expressing the E-box-LUC reporter was used to evaluate the effect of the oxyiminomethylbenzene derivative on the transcriptional activity of the CLOCK:BMAL1 dimer mediated by E-box. Reporter-expressing fibroblast line was maintained and cultured in an incubator in a humidified state at 5% carbon dioxide and 37 degrees Celsius, using Dulbecco's modified eagles medium (Invitrogen) having 10% fetal bovine serum, 1% penicillin/streptomycin (Invitrogen) and 1% L-glutamine added thereto.
(§1) The reporter-expressing cell line was dispensed and cultured in a 48-well culture plate 24 hours before compound treatment. The cultured cells were finally treated with a compound to a concentration of 0.1, 0.3, 1.0, 3.0, 10, 30 or 100 μM. As a control group (0 μM), cells treated with the same amount of dimethyl sulfoxide (DMSO) were used. After 36 hours elapsed after treatment of the compound, the cells were washed twice with 1× D-PBS, and was lysed for 15 minutes using 100 μl of a cell lysis buffer (Promega) per well. After reacting a 20 μl sample of the lysate with the same amount of a luciferase assay reagent (Promega), the luciferase activity was measured using a luminometer (TD-20/20 Luminometer, Turner systems). The measured luciferase activity was corrected based on the protein content of the lysate. The protein content was measured using a Bradford staining reagent from Bio-rad.
(§2) The concentration-response correlation for each derivative was converted to a standard curve using Four Parameter Logistic Equation. The calculation process utilized the statistical analysis function provided by SigmaPlot 10.0 ([…], Systat Software Inc.). Based on the concentration-response curve, the maximum activity (Max) and EC50 values of each derivative were calculated and input in [Table 1]. When the compound induces cell death, cytotoxicity (Tox.) was input to the EC50 field. The concentration-reaction correlation curves of compounds of Chemical Formula 8-9, 9-9, 8-10 and 9-10 as a representative example are shown in FIG. 1.

NIH-3T3 fibroblast line = test: Cytotoxicity (cell death) seen in the E-box-LUC reporter assay; type: cell-based; details: for cytotoxicity (Tox.) input to the EC50 field when the compound induces cell death: NIH-3T3 E-box-LUC cells, 0.1-100 μM, 36 hours
Procedure: as §1, §2

PER2-LUC fusion protein = test: Circadian rhythm expression of PER2-LUC fusion protein in PER2-LUC knock-in fibroblasts (real-time bioluminescence, Cosinor analysis); type: cell-based, mouse; details: 20 μM, PER2-LUC KI fibroblasts, FIG. 3; for amplitude of the circadian rhythm expression of the PER2-LUC fusion protein: DEX synchronized, up to 5 days
Procedure: The effects of the compounds (8-9 and 8-10) prepared in Example 1 on the circadian rhythm expression of the molecular biological clock whose the cells are expressed through inhibition of CRY and enhancement of transcriptional activity of CLOCK:BMAL1 were evaluated. To this end, a mutant fibroblast line (PER2-LUC knock-in fibroblast) was used in which a PER2-LUC fusion protein is expressed via linking the luciferase gene from the position where the stop codon of the PER2 gene is located. The cell line was established from lung tissue of PER2-LUC knock-in mutant mice (Non-patent document 31) 1 week after birth. PER2-LUC knock-in (KI) fibroblasts was maintained and cultured in the incubator under a humidified state at 5% carbon dioxide and 37 degrees Celsius using Dulbecco's modified Eagle medium supplemented with 10% serum, 1% penicillin/streptomycin, and 1% L-glutamine.
After treating the cultured cells with 200 nM dexamethasone (DEX) for 2 hours for synchronization, the DEX was replaced with a medium including the substrate of luciferase that is, luciferin (final concentration 0.1 mM) with 20 μM of the compound of Chemical Formula 8-9 or 8-10. As a control group, cells (VEH) treated with the same amount of dimethyl sulfoxide instead of the compound were used. As another comparative group, the cells treated with a 2-ethoxypropionic acid-based CRY inhibitor (Non-patent document 6), that is, KS15 (final concentration 20 μM) was used. The control and the KS15-treated cells were also replaced with a medium including luciferin of the same concentration.
Bioluminescence signals generated from cells cultured in a medium including the compound and luciferin were continuously measured for up to 5 days at 10-minute intervals using a real-time bioluminescence measurement equipment (Kronos-DIO, ATTO). The results were identified through statistical detrending. The circadian rhythm expression pattern of the PER2-LUC fusion protein was analyzed using the Cosinor analysis program (free distribution on http://www.circadian.org) to determine the amplitude, period, and robustness of the periodicity. Based on the results obtained through 4 replicate experiments, the statistical significance of the change according to compound treatment was verified.

SMILES | Max (%) maximum activity of E-box-LUC reporter compared to the control group (CLOCK:BMAL1 dimer; 0.1-100 μM, 36 hours) | other results
COC(=O)COc1cccc(C(C)=NOCc2cccc(C(F)(F)F)c2)c1 [Compound 8-1, methyl 2-{3-[N-{[3-(trifluoromethyl)phenyl]methoxy}ethanimidoyl]phenoxy}acetate] | – | EC50 (CLOCK:BMAL1 dimer; 0.1-100 μM, 36 hours): 27.4 µM
COC(=O)COc1cccc(C(C)=NOCc2ccc(Br)cc2)c1 [Compound 8-5, methyl 2-(3-{N-[(4-bromophenyl)methoxy]ethanimidoyl}phenoxy)acetate] | – | cytotoxicity (Tox.) input to the EC50 field when the compound induces cell death (NIH-3T3 fibroblast line): (Tox.)
CC(=NOCc1cccc(C(F)(F)F)c1)c1ccc(OCC(=O)O)cc1 [Compound 9-2, {4-[N-{[3-(trifluoromethyl)phenyl]methoxy}ethanimidoyl]phenoxy}acetic acid] | 115.15% | –
CC(=NOCc1ccc(Br)cc1)c1cccc(OCC(=O)O)c1 [Compound 8-6, (3-{N-[(4-bromophenyl)methoxy]ethanimidoyl}phenoxy)acetic acid] | 123.78% | cytotoxicity (Tox.) input to the EC50 field when the compound induces cell death (NIH-3T3 fibroblast line): (Tox.)
COC(=O)COc1ccc(C(C)=NOCc2ccc([N+](=O)[O-])cc2)cc1 [Compound 9-9, methyl 2-(4-{N-[(4-nitrophenyl)methoxy]ethanimidoyl}phenoxy)acetate] | 113.52% | –
COC(=O)COc1ccc(C(C)=NOCc2ccc(Br)cc2)cc1 [Compound 9-5, methyl 2-(4-{N-[(4-bromophenyl)methoxy]ethanimidoyl}phenoxy)acetate] | 111.88% | –
COC(=O)COc1ccc(C(C)=NOCc2ccc(OC)cc2)cc1 [Compound 9-3, methyl 2-(4-{N-[(4-methoxyphenyl)methoxy]ethanimidoyl}phenoxy)acetate] | 103.87% | –
CC(=NOCc1ccc(Br)cc1)c1ccc(OCC(=O)O)cc1 [Compound 9-6, (4-{N-[(4-bromophenyl)methoxy]ethanimidoyl}phenoxy)acetic acid] | 106.70% | –
COC(=O)COc1cccc(C(C)=NOCc2ccc([N+](=O)[O-])cc2)c1 [Compound 8-9, methyl 2-(3-{N-[(4-nitrophenyl)methoxy]ethanimidoyl}phenoxy)acetate] | – | activity of E-box-LUC (concentration-response, FIG. 1) (CLOCK:BMAL1 dimer): increase the activity of E-box-LUC in a concentration-dependent manner; cytotoxicity (NIH-3T3 fibroblast line; at up to 100 μM): No significant cytotoxicity; amplitude of the circadian rhythm expression of the PER2-LUC fusion protein (PER2-LUC fusion protein): increases the amplitude of the circadian rhythm expression of the PER2-LUC fusion protein at a significant level; period of the circadian rhythm expression of the PER2-LUC fusion protein (PER2-LUC fusion protein): not affecting the period; robustness of the circadian rhythm expression of the PER2-LUC fusion protein (PER2-LUC fusion protein): not affecting the period or robustness
COC(=O)COc1ccc(C(C)=NOCc2ccc(S(C)(=O)=O)cc2)cc1 [Compound 9-11, methyl 2-{4-[N-{[4-(methanesulfonyl)phenyl]methoxy}ethanimidoyl]phenoxy}acetate] | 100.39% | –
CC(=NOCc1ccc([N+](=O)[O-])cc1)c1cccc(OCC(=O)O)c1 [Compound 8-10, (3-{N-[(4-nitrophenyl)methoxy]ethanimidoyl}phenoxy)acetic acid] | – | activity of E-box-LUC (concentration-response, FIG. 1) (CLOCK:BMAL1 dimer): increase the activity of E-box-LUC in a concentration-dependent manner; amplitude of the circadian rhythm expression of the PER2-LUC fusion protein (PER2-LUC fusion protein): increases the amplitude of the circadian rhythm expression of the PER2-LUC fusion protein at a significant level; period of the circadian rhythm expression of the PER2-LUC fusion protein (PER2-LUC fusion protein): not affecting the period; robustness of the circadian rhythm expression of the PER2-LUC fusion protein (PER2-LUC fusion protein): not affecting the period or robustness
COC(=O)COc1ccc(C(C)=NOCc2cccc(C(F)(F)F)c2)cc1 [Compound 9-1, methyl 2-{4-[N-{[3-(trifluoromethyl)phenyl]methoxy}ethanimidoyl]phenoxy}acetate] | 107.89% | –
COC(=O)COc1cccc(C(C)=NOCc2ccc(F)cc2)c1 [Compound 8-13] | 119.93% | cytotoxicity (Tox.) input to the EC50 field when the compound induces cell death (NIH-3T3 fibroblast line): (Tox.)
CC(=NOCc1ccc([N+](=O)[O-])cc1)c1ccc(OCC(=O)O)cc1 [Compound 9-10, (4-{N-[(4-nitrophenyl)methoxy]ethanimidoyl}phenoxy)acetic acid] | 108.43% | –
CC(=NOCc1ccc(Br)cc1)c1cccc(OCC(=O)NCc2ccccn2)c1 [Compound 8-7, 2-{3-[N-(4-bromophenyl)methoxyethanimidoyl]phenoxy}-N-[(pyridin-2-yl)methyl]acetamide] | 129.69% | –
CC(=NOCc1ccc(Br)cc1)c1ccc(OCC(=O)NCCc2ncc[nH]2)cc1 [Compound 9-8, 2-{4-[N-(4-bromophenyl)methoxyethanimidoyl]phenoxy}-N-[2-(1H-imidazol-2-yl)ethyl]acetamide] | 120.89% | –
CC(=NOCc1ccc(S(C)(=O)=O)cc1)c1ccc(OCC(=O)O)cc1 [Compound 9-12, {4-[N-{[4-(methanesulfonyl)phenyl]methoxy}ethanimidoyl]phenoxy}acetic acid] | 111.38% | –
COc1ccc(CON=C(C)c2ccc(OCC(=O)O)cc2)cc1 [Compound 9-4, (4-{N-[(4-methoxyphenyl)methoxy]ethanimidoyl}phenoxy)acetic acid] | 102.65% | –
CC(=NOCc1ccc(Br)cc1)c1cccc(OCC(=O)NCCc2ncc[nH]2)c1 [Compound 8-8, 2-{3-[N-(4-bromophenyl)methoxyethanimidoyl]phenoxy}-N-[2-(1H-imidazol-2-yl)ethyl]acetamide] | 121.10% | cytotoxicity (Tox.) input to the EC50 field when the compound induces cell death (NIH-3T3 fibroblast line): (Tox.)
CC(=NOCc1ccc(Br)cc1)c1ccc(OCC(=O)NCc2ccccn2)cc1 [Compound 9-7, 2-{4-[N-(4-bromophenyl)methoxyethanimidoyl]phenoxy}-N-[(pyridin-2-yl)methyl]acetamide] | 135.47% | –
CC(=NOCc1ccc(S(C)(=O)=O)cc1)c1cccc(OCC(=O)O)c1 [Compound 8-12, {3-[N-{[4-(methanesulfonyl)phenyl]methoxy}ethanimidoyl]phenoxy}acetic acid] | 98.71% | –
